# US20240124408A1 (Sanofi, priority 2020, published 2024)
# Structures can show the parent of a compound that is named as a salt. Where two headings read alike, the source gives them in different places.
# Legend:
# [1] = molecular target: T1, human TRPM8 (Homo sapiens, UniProt Q7Z2W7); assay: In vitro human TRPM8 automated patch-clamp assay (SyncroPatch 384PE, CHO cells); assay type: cell-based; details: CHO cells expressing human TRPM8, 28° C.
# T1 construct: expressed in transfected cells; host or cells: CHO (p658 mammalian expression vector)
# T1 sequence (Q7Z2W7 whole entry): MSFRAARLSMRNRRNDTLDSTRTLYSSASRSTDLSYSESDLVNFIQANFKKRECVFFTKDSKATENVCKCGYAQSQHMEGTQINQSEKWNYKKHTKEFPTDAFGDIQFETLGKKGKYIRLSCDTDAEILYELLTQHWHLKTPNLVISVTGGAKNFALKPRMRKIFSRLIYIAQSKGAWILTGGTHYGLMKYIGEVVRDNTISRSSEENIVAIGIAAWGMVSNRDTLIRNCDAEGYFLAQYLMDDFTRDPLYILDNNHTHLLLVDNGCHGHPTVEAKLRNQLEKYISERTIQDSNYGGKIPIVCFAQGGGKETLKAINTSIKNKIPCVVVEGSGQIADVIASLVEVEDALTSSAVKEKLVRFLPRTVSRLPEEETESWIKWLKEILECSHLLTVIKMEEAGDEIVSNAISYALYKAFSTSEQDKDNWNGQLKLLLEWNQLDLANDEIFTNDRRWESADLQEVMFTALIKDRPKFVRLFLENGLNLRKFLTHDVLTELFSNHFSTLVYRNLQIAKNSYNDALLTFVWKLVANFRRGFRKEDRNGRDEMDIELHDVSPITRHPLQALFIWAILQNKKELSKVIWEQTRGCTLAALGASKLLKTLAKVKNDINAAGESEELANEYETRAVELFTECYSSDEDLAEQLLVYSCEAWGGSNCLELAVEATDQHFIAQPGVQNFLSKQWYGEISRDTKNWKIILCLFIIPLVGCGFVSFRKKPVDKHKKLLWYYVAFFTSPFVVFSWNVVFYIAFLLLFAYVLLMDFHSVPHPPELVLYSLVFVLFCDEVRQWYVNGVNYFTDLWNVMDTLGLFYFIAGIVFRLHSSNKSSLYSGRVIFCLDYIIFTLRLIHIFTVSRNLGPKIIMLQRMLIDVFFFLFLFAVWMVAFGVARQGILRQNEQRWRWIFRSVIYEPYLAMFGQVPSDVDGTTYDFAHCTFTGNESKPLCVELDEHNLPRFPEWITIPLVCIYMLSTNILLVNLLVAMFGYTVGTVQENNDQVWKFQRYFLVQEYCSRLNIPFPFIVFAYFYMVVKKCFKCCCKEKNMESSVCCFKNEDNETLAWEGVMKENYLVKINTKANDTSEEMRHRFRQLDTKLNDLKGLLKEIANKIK
# Method in brief: (§1)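 Whole-cell automated patch clamp on engineered CHO lines at 28 °C, held at −60 mV, with −80 to +80 mV ramps every 5 s; one compound concentration per well. Peak current minus pre-addition baseline was normalised to no-compound control and Emax, and EC50 was fitted; 200 μM menthol wells served as control.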
# [2] = molecular target: T2, pig TRPM8 (Sus scrofa, UniProt F1SM15); assay: In vitro pig TRPM8 fluorescence calcium flux assay (recombinant CHO cells, Fluo4-AM, FDSS6000); assay type: cell-based; details: recombinant CHO cells expressing pig TRPM8; menthol-related EC50, normalized to 100 μM menthol
# T2 construct: expressed in transfected cells; host or cells: CHO (pcDNA5/FRT/TO vector; hygromycin B and blasticidin selection)
# T2 sequence (F1SM15 1-1104): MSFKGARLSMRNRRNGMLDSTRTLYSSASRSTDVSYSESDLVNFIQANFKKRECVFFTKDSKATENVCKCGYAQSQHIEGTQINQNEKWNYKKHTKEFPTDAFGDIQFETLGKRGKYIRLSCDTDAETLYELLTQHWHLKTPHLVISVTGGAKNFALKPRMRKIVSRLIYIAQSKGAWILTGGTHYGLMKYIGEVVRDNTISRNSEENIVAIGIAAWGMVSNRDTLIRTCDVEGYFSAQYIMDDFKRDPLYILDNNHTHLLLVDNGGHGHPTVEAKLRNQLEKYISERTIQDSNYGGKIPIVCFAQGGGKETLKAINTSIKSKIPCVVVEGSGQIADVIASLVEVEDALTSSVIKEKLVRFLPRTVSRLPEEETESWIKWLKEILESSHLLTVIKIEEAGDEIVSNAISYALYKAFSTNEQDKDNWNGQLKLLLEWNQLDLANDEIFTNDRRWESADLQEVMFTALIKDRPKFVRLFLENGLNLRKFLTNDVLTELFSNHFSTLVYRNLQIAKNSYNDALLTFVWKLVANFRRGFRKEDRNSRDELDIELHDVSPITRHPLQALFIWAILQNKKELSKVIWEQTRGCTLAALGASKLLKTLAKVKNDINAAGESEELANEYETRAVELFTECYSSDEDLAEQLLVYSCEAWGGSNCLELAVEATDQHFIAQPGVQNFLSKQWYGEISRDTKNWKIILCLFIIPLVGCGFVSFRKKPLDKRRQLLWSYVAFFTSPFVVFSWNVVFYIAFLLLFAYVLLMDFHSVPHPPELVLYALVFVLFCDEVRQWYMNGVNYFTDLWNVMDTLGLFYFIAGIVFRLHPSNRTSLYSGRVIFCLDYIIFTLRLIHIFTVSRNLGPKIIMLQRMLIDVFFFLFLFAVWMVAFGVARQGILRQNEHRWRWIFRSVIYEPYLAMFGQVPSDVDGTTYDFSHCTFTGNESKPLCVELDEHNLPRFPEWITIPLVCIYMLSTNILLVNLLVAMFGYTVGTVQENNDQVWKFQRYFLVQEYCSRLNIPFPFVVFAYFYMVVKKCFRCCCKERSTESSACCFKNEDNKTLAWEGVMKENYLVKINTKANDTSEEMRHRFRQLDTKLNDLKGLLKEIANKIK
# Method in brief: (§2)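 Agonist EC50 values come from sixteen-point dose responses normalized to the 100 μM menthol maximum, fitted sigmoidally. Calcium rise was followed for 3 min post-addition in recombinant CHO lines (human or pig TRPM8). Cells were dye-loaded with 2 μM Fluo4-AM, 1 h at room temperature, probenecid-containing HBSS.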
# [3] = system: Male castrated German Landrace pigs; assay: In vivo assay: enhancement of swallowing in anesthetized pigs (manometry with pressure probe in the mouth); details: Sus scrofa, anesthetized pig, dose per pig 10 mg, injected in 1 ml vehicle into the oral cavity
# Protocol: For testing the efficacy of TRPM8 agonists for enhancing swallowing, experiment using the pig model can be conducted according to assay described below. The efficacy can be compared to a vehicle control.
# Male castrated German Landrace pigs (weight range of 20 to 35 kg) were used. Anesthesia was induced by injecting 20 ml of a urethane solution (20 g/100 mL dissolved in saline) into an ear vein corresponding to a dose of around […]. Anesthesia was maintained by continuous infusion of 15-20 mL per hour of the urethane solution, which was infused into an epigastric vein, and additionally by infusion of Zoletil and Rompun (500 mg Zoletil is disssovled in 10 ml of Rompun 2%, then diluted 1:10 with saline and 3-5 mL per hour of this diluted solution. Bupivacain 0.5% JENAPHARM@ was injected for additional infiltration anesthesia. Anesthesia was monitored via pulsoximetry (ear) and regular reflex testing for pain. Body temperature was monitored and maintained by an infrared lamp.
# Preparation of pigs: Swallowing responses were assessed by manometry with a pressure probe placed into the mouth of the pig. The pressure probe consisted of a plastic tube (diameter 3.3 mm) to which a small balloon was attached. The tube was advanced about 12-14 cm into the mouth related to the snout. The balloon was then inflated with air to yield a pressure of 20-30mbar (vehicle). Ideally a swallowing response with 1 ml of fluid raised this pressure by 20-50mbar which was then referred to as the swallowing pressure (the increment of this pre-set pressure in the inflated balloon after swallowing) to be further enhanced by an effective test drug.
# The free end of the tube was connected to a differential pressure transducer MPX Type 399/2 (Hugo Sachs Elektronik-Harvard Apparatus) and a Hugo Sachs Plugsys-amplifier system. The biological signals were recorded by a Hugo Sachs Plugsys-amplifier system and continuously stored on a computer hard disk by an on line data acquisition and analysis system (Hem 4.2 Notocord Systems, Croissy-sur-Seine, France).
# A second tube referred to as injection tube was placed dorsally to the manometer tube to enable the administration of the vehicle that induced the baseline swallowing activity, or of this same vehicle containing the test compound.
# Induction and assessment of swallowing activity: 0.5h after anesthesia induction 1 ml of a fluid or the vehicle for the test drug was injected into the injection tube placed into the oral cavity. The number of swallows was counted and the highest-pressure increment was registered. Challenges with vehicle were repeated at intervals of 30 min until two consecutive vehicle challenges show an about equal swallowing response. The next challenge was the vehicle loaded with the test drug (otherwise same procedure). The efficacy of a compound to enhance swallowing as shown in Table 7 was expressed as the % increase in pressure and frequency of swallowing after administration of the compound compared to the pressure and frequency recorded for its vehicle administered just before.
# [4] = molecular target: T1, human TRPM8; assay: In vitro human TRPM8 fluorescence calcium flux assay (recombinant CHO cells, Fluo4-AM, FDSS6000); assay type: cell-based; details: recombinant CHO cells expressing human TRPM8; menthol-related EC50, normalized to 100 μM menthol
# Method in brief: as §2
# [5] = molecular target: T2, pig TRPM8; assay: In vitro pig TRPM8 automated patch-clamp assay (SyncroPatch 384PE, CHO cells); assay type: cell-based; details: CHO cells expressing pig TRPM8, 28° C.
# Method in brief: as §1
# [6] = frequency of swallowing compared with vehicle administered just before, read-out: % increase frequence vs vehicle
# [7] = swallowing pressure compared with vehicle administered just before, read-out: % increase pressure vs vehicle
SMILES,EC50 [1],EC50 [2],EC50 [4],EC50 [5],"change in vivo at 10 mg [3, 6]","change in vivo at 10 mg [3, 7]"
"CC(C)[C@@H]1CC[C@@H](C)C[C@@]1(O)C(=O)NCC(F)(F)c1ccccc1 [Example 4, (1S,2S,5R)—N-(2,2-difluoro-2-phenylethyl)-1-hydroxy-2-isopropyl-5-methylcyclohexane-1-carboxamide]",541 nM,1.2 nM,2.8 nM,467 nM,417%,221%
"CC(C)[C@@H]1CC[C@@H](C)C[C@@]1(O)C(=O)NCC1(c2ccccc2)COC1 [Example 31, (1S,2S,5R)-1-hydroxy-2-isopropyl-5-methyl-N-((3-phenyloxetan-3-yl)methyl)cyclohexane-1-carboxamide]",2080 nM,9.3 nM,10.4 nM,3150 nM,119%,253%
"CC(C)[C@@H]1CC[C@@H](C)C[C@@]1(O)C(=O)NCCc1cccc(O)c1 [Example 40, (1S,2S,5R)-1-hydroxy-N-(3-hydroxyphenethyl)-2-isopropyl-5-methylcyclohexane-1-carboxamide]",1440 nM,1.4 nM,2.5 nM,1760 nM,62%,393%
"CC(C)[C@@H]1CC[C@@H](C)C[C@@]1(O)C(=O)NCCc1cccc(C(=O)OCCO)c1 [Example 21, 2-hydroxyethyl 3-(2-((1S,2S,5R)-1-hydroxy-2-isopropyl-5-methylcyclohexane-1-carboxamido)ethyl) benzoate]",5500 nM,56.3 nM,65.1 nM,5290 nM,171%,181%
"CC(C)[C@@H]1CC[C@@H](C)C[C@@]1(O)C(=O)NC[C@@H](O)c1ccccc1 [Example 1, (1S,2S,5R)-1-hydroxy-N—((S)-2-hydroxy-2-phenylethyl)-2-isopropyl-5-methylcyclohexane-1-carboxamide]",810 nM,1.2 nM,1.7 nM,733 nM,231%,274%
"CC(C)[C@@H]1CC[C@@H](C)C[C@@]1(O)C(=O)NCCc1ccccc1OC[C@@H](O)CO [Example 25, (1S,2S,5R)—N-(2-((S)-2,3-dihydroxypropoxy)phenethyl)-1-hydroxy-2-isopropyl-5-methylcyclohexane-1-carboxamide]",2150 nM,32.8 nM,14.5 nM,3400 nM,173%,168%
"CC(C)[C@@H]1CC[C@@H](C)C[C@@]1(O)C(=O)NCCc1ccccc1 [Example 51, (1S,2S,5R)-1-hydroxy-2-isopropyl-5-methyl-N-phenethylcyclohexane-1-carboxamide]",3030 nM,4.5 nM,7.8 nM,823 nM,250%,186%
"CC(C)[C@@H]1CC[C@@H](C)C[C@@]1(O)C(=O)NCCc1cccc(C(N)=O)c1 [Example 49, 3-(2-((1S,2S,5R)-1-hydroxy-2-isopropyl-5-methylcyclohexane-1-carboxamido)ethyl) benzamide]",1940 nM,24.2 nM,67 nM,1400 nM,300%,133%
"CC(C)[C@@H]1CC[C@@H](C)C[C@@]1(O)C(=O)NCCc1ccccc1CO [Example 14, (1S,2S,5R)-1-hydroxy-N-(2-(hydroxymethyl)phenethyl)-2-isopropyl-5-methylcyclohexane-1-carboxamide]",2720 nM,6.7 nM,10.3 nM,3300 nM,62%,73%
"CC(C)[C@@H]1CC[C@@H](C)C[C@@]1(O)C(=O)NCCc1ccccc1C(=O)OCCN [Example 13, 2-aminoethyl 2-(2-((1S,2S,5R)-1-hydroxy-2-isopropyl-5-methylcyclohexane-1-carboxamido)ethyl) benzoate hydrochloride]",150 nM,2 nM,1 nM,782 nM,100%,53%
"CC(C)[C@@H]1CC[C@@H](C)C[C@@]1(O)C(=O)NC[C@@H](O)c1cccc(O)c1 [Example 42, (1S,2S,5R)-1-hydroxy-N-((2S)-hydroxy-2-(3-hydroxyphenyl)ethyl)-2-isopropyl-5-methylcyclohexane-1-carboxamide]",910 nM,3.8 nM,12.4 nM,921 nM,–,–

# More lines, main results first:
EC50 [1],EC50 [2],EC50 [4],EC50 [5],SMILES,"change in vivo at 10 mg [3, 6]","change in vivo at 10 mg [3, 7]"
1300 nM,24.3 nM,26 nM,864 nM,"CC(C)[C@@H]1CC[C@@H](C)C[C@@]1(O)C(=O)NCCc1ccccc1CCO [Example 52, (1S,2S,5R)-1-hydroxy-N-(2-(2-hydroxyethyl)phenethyl)-2-isopropyl-5-methylcyclohexane-1-carboxamide]",172%,202%
1800 nM,82 nM,40.2 nM,3970 nM,"CC(C)[C@@H]1CC[C@@H](C)C[C@@]1(O)C(=O)NCCc1ccccc1OCCCO [Example 80, (1S,2S,5R)-1-hydroxy-N-(2-(3-hydroxypropoxy)phenethyl)-2-isopropyl-5-methylcyclohexane-1-carboxamide]",91%,86%
–,73 nM,211 nM,> 10000 nM,"COC(=O)c1ccc(CCNC(=O)[C@]2(O)C[C@H](C)CC[C@H]2C(C)C)cc1 [Example 108, methyl 4-(2-((1S,2S,5R)-1-hydroxy-2-isopropyl-5-methylcyclohexane-1-carboxamido)ethyl)benzoate]",114%,169%
53 nM,5.7 nM,2.6 nM,57 nM,"CC(C)[C@@H]1CC[C@@H](C)C[C@@]1(O)C(=O)NC[C@@H](NC(=O)[C@H](C)N)c1ccccc1 [Example 63, (1S,2S,5R)—N—((S)-2-((S)-2-aminopropanamido)-2-phenylethyl)-1-hydroxy-2-isopropyl-5-methylcyclohexane-1-carboxamide]",191%,186%
5650 nM,91.1 nM,226 nM,8730 nM,"CC(C)OC(=O)CNC(=O)[C@]1(O)C[C@H](C)CC[C@H]1C(C)C [Example 54, isopropyl ((1S,2S,5R)-1-hydroxy-2-isopropyl-5-methylcyclohexane-1-carbonyl)glycinate]",75%,64%
1500 nM,20 nM,56.7 nM,1090 nM,"CC(C)[C@@H]1CC[C@@H](C)C[C@@]1(O)C(=O)NCC(=O)Nc1ccc(O)cc1 [Example 88, (1S,2S,5R)-1-hydroxy-N-(2-((4-hydroxyphenyl)amino)-2-oxoethyl)-2-isopropyl-5-methylcyclohexane-1-carboxamide]",–,–
